What was measured:
Format in all cases: cell-based
[1] = tested on: E. coli K12 genes; experiment: DNA microarray, genes repressed by ursolic acid
Method: To identify the genes controlled by ursolic acid, E. coli K12 was grown in LB medium overnight, diluted 1:100 in fresh LB supplemented with 0, 10, or 30 μg/mL ursolic acid. The same amount of ethanol was supplemented to eliminate solvent effects. The cultures were grown to an OD600 of 0.9. The cells were centrifuged in a microcentrifuge for 15 seconds at 20,000×g in mini bead beater tubes (Biospec, Bartlesville, Okla.) that were cooled to −80° C. before sampling. The cell pellets were flash frozen in a dry ice-ethanol bath and stored at −80° C. until RNA isolation.
To lyse the cells, 1.0 mL RLT buffer (Qiagen, Inc., Valencia, Calif.) and 0.2 mL 0.1 mm zirconia/silica beads (Biospec) were added to the frozen bead beater tubes containing the cell pellets. The tubes were closed tightly and beat for 30 seconds at the maximum speed in a mini bead beater (cat. no. 3110BX, Biospec). The total RNA was isolated by following the protocol of the RNeasy Mini Kit (Qiagen) including an on-column DNase digestion with RNase-free DNase I (Qiagen). OD260 was used to quantify the RNA yield. OD260/OD280 and 23S/16S rRNA were measured using a 2100 Bioanalyzer (Agilent Technologies, Palo Alto, Calif.) to check the purity and integrity of RNA (RNeasy Mini handbook, Qiagen).
The E. coli DNA microarrays were prepared as described previously by Wei, Y. et al (Journal of Bacteriology, 2001, 183 (2) p. 545-556). Each gene probe was synthesized by PCR and has the size of the full open reading frame (200-2000 nt). The double-strand PCR products were denatured in 50% dimethyl sulfoxide and spotted onto aminosilane slides (Full Moon Biosystems, Sunnyvale, Calif.) as probes to hybridize with the mRNA-derived cDNA samples. It has been shown that each array can detect 4228 of the 4290 E. coli ORFs. Each gene has two spots per slide.
Briefly, the total RNA from the E. coli K12 samples grown with and without ursolic acid was first converted into labeled cDNA. […] The Cy3-labeled sample without ursolic acid and the Cy5-labeled ursolic acid sample (with 10 or 30 μg/mL ursolic acid) were hybridized on the first slide. Similarly, the Cy5-labeled sample without ursolic acid and the Cy3-labeled ursolic acid sample were hybridized on the second slide. Since each gene has two spots on a slide, the two hybridizations generated eight data points for each gene (four points for the sample without ursolic acid and four points for the ursolic acid sample). The microarray experiments with dye-swapping were repeated for both concentrations of ursolic acid.
The DNA microarrays were incubated in prehybridization solution (3.5×SSC [1×SSC is 0.15 M NaCl plus 0.015 M sodium citrate] [Invitrogen], 0.1% sodium dodecyl sulfate [SDS] [Invitrogen], and 0.1% bovine serum albumin [Invitrogen]) at 45° C. for 20 min. The arrays were rinsed with double-distilled water and were spun dry by centrifugation. Labeled cDNA (6 μg) was concentrated to 10 μl of total volume and was mixed with 10 μl of 4×cDNA hybridization solution (Full Moon Biosystems) and 20 μl of formamide (EM Science, Gibbstown, N.J.). The hybridization mix was heated to 95° C. for 2 min and was added to the DNA microarrays; each array was covered with a coverslip (Corning, Big Flats, N.Y.) and was incubated overnight at 37° C. for hybridization. When the hybridization was finished, the coverslips were removed in 1×SSC-0.1% SDS at room temperature, and the arrays were washed once for 5 min in 1×SSC-0.1% SDS at 40° C., twice for 10 min in 0.1×SSC-0.1% SDS at 40° C., and twice for 1 min in 0.1×SSC at 40° C. The arrays were quickly rinsed by dipping in room-temperature double-distilled water and were then spun dry by centrifugation. The hybridized slides were scanned with the Generation III Array Scanner (Molecular Dynamics Corp.). Readings at 570 and 670 nm was used to quantify the probes labeled with Cy3 and Cy5 separately. The signal was quantified with Array Vision 4.0 or 6.0 software (Imaging Research, St. Catherines, Ontario, Canada). […]

[2] = tested on: E. coli JM109; experiment: Inhibition of air-liquid interface biofilm; settings: added with inoculation, E. coli JM109 in LB 0.2% glucose
Method: (§1) Inhibition of biofilm formation by E. coli K12 [R1drd19], P. aeruginosa PAO1, and V harveyi BB120 by the addition of 10 μg/mL ursolic acid. For E. coli K12 [R1drd19], data were collected 16 hours after addition of ursolic acid to a 24 hour biofilm in LB medium; for P. aeruginosa PAO1, data were collected 18 hours after addition of ursolic acid with inoculation in LB medium plus 1% sodium citrate; and for V. harveyi BB120, data were collected 18 hours after addition of ursolic acid with inoculation in M9 medium. All biofilm mass readings at OD540 were normalized based on the reading of wild type without ursolic acid which was normalized to 1. One standard deviation is shown.
Example 1 was repeated, except ursolic acid was added with inoculation in E. coli JM109 grown in LB 0.2% glucose.

[3] = tested on: V. harveyi BB120; experiment: Inhibition of biofilm formation (biofilm mass, OD540)
Method: as §1

[4] = tested on: P. aeruginosa PAO1; experiment: as above
Method: as §1

[5] = tested on: E. coli K12 [R1drd19]; experiment: as above
Method: as §1

For C[C@H]1[C@H](C)CC[C@]2(C(=O)O)CC[C@]3(C)C(=CC[C@@H]4[C@@]5(C)CC[C@H](O)C(C)(C)[C@@H]5CC[C@]43C)[C@H]12 [ursolic acid], the “ER (expression ratio) gene arsC” value ([1]; 10 μg/mL ursolic acid) was −1.5, the “ER (expression ratio) gene b0309” value ([1]; 10 μg/mL ursolic acid) was −1.7 and the “ER (expression ratio) gene b0484” value ([1]; 10 μg/mL ursolic acid) was −1.5. For the same compound, the “ER (expression ratio) gene b0485” value ([1]; 10 μg/mL ursolic acid) was −1.8, the “ER (expression ratio) gene b0829” value ([1]; 10 μg/mL ursolic acid) was −1.5 and the “ER (expression ratio) gene b1729” value ([1]; 10 μg/mL ursolic acid) was −5.6. For the same compound, the “ER (expression ratio) gene b2379” value ([1]; 10 μg/mL ursolic acid) was −1.5, the “ER (expression ratio) gene b2789” value ([1]; 10 μg/mL ursolic acid) was −1.9 and the “ER (expression ratio) gene cspF” value ([1]; 10 μg/mL ursolic acid) was −1.6. The “ER (expression ratio) gene cspG” value ([1]; 10 μg/mL ursolic acid) was −2.5, the “ER (expression ratio) gene cysB” value ([1]; 10 μg/mL ursolic acid) was −1.7 and the “ER (expression ratio) gene cysD” value ([1]; 10 μg/mL ursolic acid) was −2.5. The “ER (expression ratio) gene cysI” value ([1]; 10 μg/mL ursolic acid) was −1.5, the “ER (expression ratio) gene cysJ” value ([1]; 10 μg/mL ursolic acid) was −3.6 and the “ER (expression ratio) gene cysK” value ([1]; 10 μg/mL ursolic acid) was −3.6. The “ER (expression ratio) gene frvR” value ([1]; 10 μg/mL ursolic acid) was −5.4, the “ER (expression ratio) gene gntU_1” value ([1]; 10 μg/mL ursolic acid) was −1.5 and the “ER (expression ratio) gene hdeA” value ([1]; 10 μg/mL ursolic acid) was −1.7. The “ER (expression ratio) gene hdeB” value ([1]; 10 μg/mL ursolic acid) was −1.8, the “ER (expression ratio) gene narH” value ([1]; 10 μg/mL ursolic acid) was −1.6 and the “ER (expression ratio) gene pheM” value ([1]; 10 μg/mL ursolic acid) was −1.6. The “ER (expression ratio) gene pheP” value ([1]; 10 μg/mL ursolic acid) was −1.5, the “ER (expression ratio) gene rimL” value ([1]; 10 μg/mL ursolic acid) was −1.5 and the “ER (expression ratio) gene rmf” value ([1]; 10 μg/mL ursolic acid) was −1.5. For the same compound, the “ER (expression ratio) gene rpml” value ([1]; 10 μg/mL ursolic acid) was −1.6, the “ER (expression ratio) gene slp” value ([1]; 10 μg/mL ursolic acid) was −1.5 and the “ER (expression ratio) gene ugpB” value ([1]; 10 μg/mL ursolic acid) was −1.4. For the same compound, the “ER (expression ratio) gene ybhG” value ([1]; 10 μg/mL ursolic acid) was −1.4, the “ER (expression ratio) gene ybiK” value ([1]; 10 μg/mL ursolic acid) was −2.4 and the “ER (expression ratio) gene yeeD” value ([1]; 10 μg/mL ursolic acid) was −2.3. For the same compound, the “ER (expression ratio) gene yeeE” value ([1]; 10 μg/mL ursolic acid) was −13, the “ER (expression ratio) gene yhaD” value ([1]; 10 μg/mL ursolic acid) was −1.6 and the “ER (expression ratio) gene yhaF” value ([1]; 10 μg/mL ursolic acid) was −1.5. For the same compound, the “ER (expression ratio) gene yhaG” value ([1]; 10 μg/mL ursolic acid) was −2, the “ER (expression ratio) gene yhaU” value ([1]; 10 μg/mL ursolic acid) was −1.9 and the “ER (expression ratio) gene yjeB” value ([1]; 10 μg/mL ursolic acid) was −1.4. The “ER (expression ratio) gene arsC” value ([1]; 30 μg/mL ursolic acid) was 1.4, the “ER (expression ratio) gene b0309” value ([1]; 30 μg/mL ursolic acid) was −1.3 and the “ER (expression ratio) gene b0484” value ([1]; 30 μg/mL ursolic acid) was −1.1. For the same compound, the “ER (expression ratio) gene b0485” value ([1]; 30 μg/mL ursolic acid) was −1.3, the “ER (expression ratio) gene b0829” value ([1]; 30 μg/mL ursolic acid) was −1.5 and the “ER (expression ratio) gene b1729” value ([1]; 30 μg/mL ursolic acid) was −2. The “ER (expression ratio) gene b2379” value ([1]; 30 μg/mL ursolic acid) was 1, the “ER (expression ratio) gene b2789” value ([1]; 30 μg/mL ursolic acid) was −2.5 and the “ER (expression ratio) gene cspF” value ([1]; 30 μg/mL ursolic acid) was −1.1. For the same compound, the “ER (expression ratio) gene cspG” value ([1]; 30 μg/mL ursolic acid) was −1.7, the “ER (expression ratio) gene cysB” value ([1]; 30 μg/mL ursolic acid) was −1.4 and the “ER (expression ratio) gene cysD” value ([1]; 30 μg/mL ursolic acid) was −2.5. For the same compound, the “ER (expression ratio) gene cysI” value ([1]; 30 μg/mL ursolic acid) was −1.7, the “ER (expression ratio) gene cysJ” value ([1]; 30 μg/mL ursolic acid) was −3.3 and the “ER (expression ratio) gene cysK” value ([1]; 30 μg/mL ursolic acid) was −3.3. For the same compound, the “ER (expression ratio) gene frvR” value ([1]; 30 μg/mL ursolic acid) was −2, the “ER (expression ratio) gene gntU_1” value ([1]; 30 μg/mL ursolic acid) was −1.4 and the “ER (expression ratio) gene hdeA” value ([1]; 30 μg/mL ursolic acid) was −1.4. The “ER (expression ratio) gene hdeB” value ([1]; 30 μg/mL ursolic acid) was −1.4, the “ER (expression ratio) gene narH” value ([1]; 30 μg/mL ursolic acid) was −1.4 and the “ER (expression ratio) gene pheM” value ([1]; 30 μg/mL ursolic acid) was 1. The “ER (expression ratio) gene pheP” value ([1]; 30 μg/mL ursolic acid) was −1.1, the “ER (expression ratio) gene rimL” value ([1]; 30 μg/mL ursolic acid) was 1 and the “ER (expression ratio) gene rmf” value ([1]; 30 μg/mL ursolic acid) was 1. The “ER (expression ratio) gene rpml” value ([1]; 30 μg/mL ursolic acid) was 1, the “ER (expression ratio) gene slp” value ([1]; 30 μg/mL ursolic acid) was −1.6 and the “ER (expression ratio) gene ugpB” value ([1]; 30 μg/mL ursolic acid) was −1.5. The “ER (expression ratio) gene ybhG” value ([1]; 30 μg/mL ursolic acid) was −1.4, the “ER (expression ratio) gene ybiK” value ([1]; 30 μg/mL ursolic acid) was -2.2 and the “ER (expression ratio) gene yeeD” value ([1]; 30 μg/mL ursolic acid) was −1.4. For the same compound, the “ER (expression ratio) gene yeeE” value ([1]; 30 μg/mL ursolic acid) was −2, the “ER (expression ratio) gene yhaD” value ([1]; 30 μg/mL ursolic acid) was −2.6 and the “ER (expression ratio) gene yhaF” value ([1]; 30 μg/mL ursolic acid) was −2.4. The “ER (expression ratio) gene yhaG” value ([1]; 30 μg/mL ursolic acid) was −2.2, the “ER (expression ratio) gene yhaU” value ([1]; 30 μg/mL ursolic acid) was −4.2 and the “ER (expression ratio) gene yjeB” value ([1]; 30 μg/mL ursolic acid) was 1. For the same compound, the air-liquid interface biofilm [2] was “inhibited air-liquid interface biofilm”, the formation of biofilms [3] was “reduces or inhibits the formation of biofilms” and the formation of biofilms [4] was “reduces or inhibits the formation of biofilms”. The formation of biofilms [5] was “reduces or inhibits the formation of biofilms”.

From patent US7604978B2, “Inhibition of biofilm formation” (Sequoia Sciences, Inc., priority 2004, dated 2009)
